Experimental data taken from US10004225B2, “Wearable insect repelling patch” (S. C. Johnson & Son, Inc., priority 2005, dated 2018).

Tests used:
mosquitoes = assay: Additional field tests with FIG. 4 type patches, wrist bands and ankle bands; assay type: in vivo; conditions: 7.5 cm×7.5 cm patches, 10 mg each, two or four patches, one or two wrist bands, five to sixty minute monitoring, heavy mosquito populations
Procedure: We then tried some additional field tests with respect to mosquitoes using FIG. 4 type patches. Patches were made be adhering a multi-layer non-woven cloth made of rayon, polyester, polypropylene, and polyethylene fibers 30 to a multi-laminate foil film 34 with strips of 3M double facing tape 32. The cloth was 7.5 cm×7.5 cm in top view, and the dosing included for each patch 10 mg of metofluthrin dissolved in 2.53 ml of acetone.
We then sealed the patches in towelette pouches for storage prior to use. When the patch was to be used, we opened the pouch by tearing it open, removed the patch, peeled off the multi-laminate foil, and attached the cloth/tape structure to the specified locations.
We tested the use of two patches, the use of four patches, the use of one or two wrist bands, and the use of one or two ankle bands. All achieved over 50% repellency throughout a five minute to sixty minute monitoring under conditions of heavy mosquito populations.

[1] = @ 25° C.; cited from earlier work

In the case of `CC=C[C@@H]1[C@@H](C(=O)OCc2c(F)c(F)c(COC)c(F)c2F)C1(C)C` (racemic) [metofluthrin, 2,3,5,6-tetrafluoro-4-methoxymethylbenzyl (EZ)-(1RS,3RS)-2,2-dimethyl-3-(prop-1-enyl)-cyclopropanecarboxylate], the repellency (mosquitoes) is given as “over 50%” and the Vapor pressure [1] is given as 3.4 × 10^−6 mmHg @.
